Test results published in US12247004B2, “2-amino-N-(amino-oxo-aryl-lambda6-sulfanylidene)acetamide compounds and their therapeutic use” (Oxford Drug Design Limited, priority 2019, dated 2025).
Values after ≈ are worked out from the molar mass of the structure shown. Structures can show the parent of a compound that is named as a salt. Where two headings read alike, the source gives them in different places.

Key:
[1] = biological target: Leucyl-tRNA synthetase (LeuRS) (Escherichia coli (strain K12), UniProt P07813); experiment: Leucyl-tRNA synthetase enzyme inhibition (AMP-Glo; single point % inhibition at 100 μM and IC50); format: biochemical
Leucyl-tRNA synthetase (LeuRS), sequence (P07813 whole entry, looked up): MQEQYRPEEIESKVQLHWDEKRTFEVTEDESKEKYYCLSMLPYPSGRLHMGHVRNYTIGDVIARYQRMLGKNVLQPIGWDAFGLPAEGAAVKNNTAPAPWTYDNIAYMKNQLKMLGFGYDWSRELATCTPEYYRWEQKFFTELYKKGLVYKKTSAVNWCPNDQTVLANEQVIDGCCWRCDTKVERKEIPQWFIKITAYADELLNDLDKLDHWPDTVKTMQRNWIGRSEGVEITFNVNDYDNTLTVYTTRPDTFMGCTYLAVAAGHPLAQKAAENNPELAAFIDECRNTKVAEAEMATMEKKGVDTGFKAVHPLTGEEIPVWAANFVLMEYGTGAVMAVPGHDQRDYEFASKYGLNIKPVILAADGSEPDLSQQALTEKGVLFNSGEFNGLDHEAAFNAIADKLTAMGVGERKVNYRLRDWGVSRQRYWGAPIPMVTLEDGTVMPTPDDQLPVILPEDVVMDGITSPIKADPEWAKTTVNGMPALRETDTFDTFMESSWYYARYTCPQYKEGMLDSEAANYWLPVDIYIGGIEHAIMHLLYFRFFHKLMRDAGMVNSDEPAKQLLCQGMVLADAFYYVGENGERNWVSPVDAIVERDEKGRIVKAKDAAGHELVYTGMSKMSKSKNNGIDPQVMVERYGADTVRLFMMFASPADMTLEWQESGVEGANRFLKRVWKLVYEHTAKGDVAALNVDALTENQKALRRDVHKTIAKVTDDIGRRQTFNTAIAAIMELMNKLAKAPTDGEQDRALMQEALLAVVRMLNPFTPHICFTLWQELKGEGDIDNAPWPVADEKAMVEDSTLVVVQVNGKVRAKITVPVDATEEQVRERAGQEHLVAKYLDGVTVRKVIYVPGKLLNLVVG

[2] = Human cell viability / cytotoxicity (CellTiter-Glo, 24 hours); format: cell-based; conditions: human, HepG2 cells (ATCC HB-8065); HepG2 ATCC HB-8065, 24 hours; read-out: Cytotoxicity in HepG2 ATCC HB-8065 Cell Line, IC50
Method: Study 3—Human Cell Viability
Compounds were assessed for potential non-specific cytotoxic effects against a human hepatic cell line (HepG2 ATCC HB-8065). 96-well plates were seeded with HepG2 cells in concentration of 15,000 cells per well in 100 μL of MEM growth media completed with 1% NEAA and 1% sodium pyruvate. Border wells were filled with 100 μL of sterile PBS. Two days upon cells incubation, the compounds were added. Compound dilutions were prepared in 96-well V-bottom plate in pure DMSO. Growth media from 5 plates were aspirated and replaced with 98.7 μL of fresh growth media. 1.28 μL of compounds prepared in V-bottom plates were transferred with multichannel pipette into test plates (78.1× dilution). Final DMSO concentration was 1.28% per well. In control wells, 1.28 μL of DMSO was added in 98.7 μL of media. Compounds were tested in duplicates. Cells were incubated with compounds for 24 hours when cell viability was assessed by measuring ATP levels. ATP levels were measured by adding 50 μL of CellTiter-Glo reagent to each well and after 5 minutes of incubation luminescence was measured with SpectraMax i3. The potential effect of tested compounds on cell viability was determined by comparing the signal obtained in presence of different concentrations of the compounds with those obtained in the presence of DMSO only. The potential effects were then calculated and presented as IC50 values (μg/mL).

[3] = tested on: bacteria (ATCC reference strains); experiment: Antibacterial activity, MIC by broth micro-dilution (CLSI)
[4] = Acinetobacter baumannii, read-out: Antibacterial Activity (MIC), E = A. baumannii B1931
[5] = Enterobacter cloacae, read-out: Antibacterial Activity (MIC), B = Enterobacter cloacae B1966
[6] = Escherichia coli, ATCC25922, read-out: Antibacterial Activity (MIC), A = E. coli ATCC 25922
[7] = Haemophilus influenzae, ATCC49247, read-out: Antibacterial Activity (MIC), F = H. influenzae ATCC 49247
[8] = Klebsiella pneumoniae, ATCC700603, read-out: Antibacterial Activity (MIC), C = K. pneumoniae ATCC 700603
[9] = Pseudomonas aeruginosa, ATCC27853, read-out: Antibacterial Activity (MIC), D = P. aeruginosa ATCC 27853
[10] = Escherichia coli, BAA2469, read-out: Antibacterial Activity (MIC), G = E. coli BAA-2469
[11] = E. coli LeuRS, read-out: Enzyme Inhibition - IC50, E. coli LeuRS

Row | SMILES | IC50 [1] [nM] | IC50 at 24 h [2] [µg/mL] | MIC [3, 4] [µg/mL] | MIC [3, 5] [µg/mL] | MIC [3, 6] [µg/mL] | MIC [3, 7] [µg/mL] | MIC [3, 8] [µg/mL] | MIC [3, 9] [µg/mL] | MIC [3, 10] [µg/mL] | IC50 [1, 11] [nM]
1 | CC(C)C[C@H](N)C(=O)N=[S@](N)(=O)c1cccc(Cl)c1F.Cl [ANASIA-001-1] | 535 | > 64 | > 64 | > 64 | 16 | 32 | > 64 | > 64 |  | 
2 | CC(C)C[C@H](N)C(=O)N=[S@](N)(=O)c1cccc(Cl)c1.Cl [ANASIA-002-1] | 27.5 | > 64 | 32 | 8 | 1 | 2 | 32 | > 64 | 4 | 
3 | CC(C)C[C@H](N)C(=O)N=[S@@](N)(=O)c1cccc(Cl)c1.Cl [ANASIA-002-2] |  | > 64 | > 64 | > 64 | 64 | > 64 | > 64 | > 64 |  | 1050
4 | CC(C)C[C@H](N)C(=O)N=S(N)(=O)c1cccc(Cl)c1 (stereo partly drawn) [ANASIA-002] |  | > 64 | > 45.3 | > 45.3 | 2.83 (≈ 9.31 µM) | 5.66 (≈ 18.6 µM) | > 22.6 | > 64 |  | 110
5 | CC(C)C[C@H](N)C(=O)N=[S@](N)(=O)c1ccccc1.Cl [ANASIA-003-1, (S)-2-amino-N—((S)-amino(oxo)(phenyl)-λ6-sulfanylidene)-4-methylpentanamide hydrochloride] |  | > 64 | 64 | 16 | 4 | 8 | 16 | 64 |  | 61.5
6 | CC(C)C[C@H](N)C(=O)N=S(N)(=O)c1ccccc1 (stereo partly drawn) [ANASIA-003] |  | > 64 | 32 (≈ 119 µM) | 16 (≈ 59.4 µM) | 2.83 (≈ 10.5 µM) | 16 (≈ 59.4 µM) | 8 (≈ 29.7 µM) | 50.8 (≈ 189 µM) |  | 92.9
7 | Cc1csc(S(N)(=O)=NC(=O)[C@@H](N)CC(C)C)n1 (stereo partly drawn) [ANASIA-004, (2S)-2-amino-N-(amino(4-methylthiazol-2-yl)(oxo)-λ6-sulfanylidene)-4-methyl pentanamide hydrochloride] |  | > 64 | 64 | > 64 | 16 | 8 | > 64 | 64 |  | 91.6
8 | Cc1cccc([S@](N)(=O)=NC(=O)[C@@H](N)CC(C)C)c1 [ANASIA-005-2] |  | > 64 | > 64 | 64 (≈ 226 µM) | 8 (≈ 28.2 µM) | 16 (≈ 56.5 µM) | > 64 | > 64 | 32 (≈ 113 µM) | 151
9 | Cc1cccc(S(N)(=O)=NC(=O)[C@@H](N)CC(C)C)c1 (stereo partly drawn) [ANASIA-005] |  | > 64 | 64 (≈ 226 µM) | 32 (≈ 113 µM) | 8 (≈ 28.2 µM) | 32 (≈ 113 µM) | 32 (≈ 113 µM) | > 64 |  | 381
10 | CC(C)C[C@H](N)C(=O)N=S(N)(=O)c1cccnc1 (stereo partly drawn) [ANASIA-006] |  | > 64 | > 64 | > 64 | 64 (≈ 237 µM) | > 64 | > 64 | > 64 |  | 708
11 | CC(C)C[C@H](N)C(=O)N=[S@](N)(=O)c1ccsc1.Cl [ANASIA-008-1] | 30.6 | > 64 | 32 | 8 | 2 | 4 | 8 | 32 |  | 
12 | CC(C)C[C@H](N)C(=O)N=S(N)(=O)c1ccsc1 (stereo partly drawn) [ANASIA-008] |  | > 64 | 32 (≈ 116 µM) | 16 (≈ 58.1 µM) | 2 (≈ 7.26 µM) | 16 (≈ 58.1 µM) | 8 (≈ 29 µM) | 32 (≈ 116 µM) |  | 144
13 | CC(C)C[C@H](N)C(=O)N=[S@@](N)(=O)c1ccc(Cl)s1 [ANASIA-009-2] |  | > 64 | 64 (≈ 207 µM) | 32 (≈ 103 µM) | 4 (≈ 12.9 µM) | 8 (≈ 25.8 µM) | 32 (≈ 103 µM) | > 64 |  | 149
14 | CC(C)C[C@H](N)C(=O)N=[S@](N)(=O)c1sccc1Cl.Cl [ANASIA-012-1] | 87.4 | > 64 | 64 | 32 | 4 | 8 | 64 | > 64 | 16 | 
15 | CC(C)C[C@H](N)C(=O)N=S(N)(=O)c1sccc1Cl (stereo partly drawn) [ANASIA-012] |  | > 64 | > 64 | 64 (≈ 207 µM) | 8 (≈ 25.8 µM) | 16 (≈ 51.6 µM) | > 64 | > 64 | 32 (≈ 103 µM) | 155
16 | Cc1ccc([S@@](N)(=O)=NC(=O)[C@@H](N)CC(C)C)s1.Cl [ANASIA-014-1] | 81.1 | > 64 | 64 | 16 | 4 | 4 | 64 | > 64 |  | 
17 | Cc1ccsc1[S@@](N)(=O)=NC(=O)[C@@H](N)CC(C)C.Cl [ANASIA-015-1] | 56.5 | > 64 | 64 | 16 | 2 | 8 | 16 | 64 | 5.66 | 
18 | CC(C)C[C@H](N)C(=O)N=S(N)(=O)c1ccc(C(F)F)s1 (stereo partly drawn) [ANASIA-017] | 145 | > 64 | > 64 | > 64 | 16 (≈ 49.2 µM) | 8 (≈ 24.6 µM) | > 64 | > 64 |  | 
19 | CC(C)C[C@H](N)C(=O)N=[S@](N)(=O)c1cc(F)ccc1F.Cl [ANASIA-024-1] | 141 | > 64 | > 64 | > 64 | 16 | 16 | > 64 | > 64 |  | 
20 | CC(C)C[C@H](N)C(=O)N=[S@](N)(=O)c1cccc(C#N)c1.Cl [ANASIA-041-1] | 17.7 | > 64 | > 64 | > 64 | 5.66 | 2.83 | > 64 | > 64 | 64 | 
21 | CC(C)C[C@H](N)C(=O)N=[S@](N)(=O)c1cccc(C(C)C)c1.Cl [ANASIA-043-1] | 112 | > 64 | > 64 | > 64 | > 64 | 45.3 | > 64 | > 64 |  | 
22 | CC(C)C[C@H](N)C(=O)N=[S@](N)(=O)c1cccc(Br)c1.Cl [ANASIA-044-1] | 71 | > 64 | 64 | 16 | 2 | 2 | 64 | > 64 |  | 
23 | CC(C)C[C@H](N)C(=O)N=[S@](N)(=O)c1cccc(Cl)c1Cl.Cl [ANASIA-046-1] | 960 | > 64 | > 64 | > 64 | > 64 | 64 | > 64 | > 64 |  | 
24 | CC(C)C[C@H](N)C(=O)N=[S@](N)(=O)c1cccc(Oc2ccc(Cl)cc2)c1.Cl [ANASIA-047-1] | 76.4 | 46.5 | > 64 | > 64 | > 64 | 64 | > 64 | > 64 |  | 
